Test results as given in ChEMBL document CHEMBL3991601, “The target landscape of clinical kinase drugs” (Science, 2017).
Active and inactive are the calls of the source. For most assays here, no stated cut-off is given here; in the data, actives have a measured Kd and inactives only a lower limit.

Experiments:
[1] = target: T1, Non-receptor tyrosine-protein kinase TNK1 (Homo sapiens, UniProt Q13470)
T1 sequence (Q13470 whole entry): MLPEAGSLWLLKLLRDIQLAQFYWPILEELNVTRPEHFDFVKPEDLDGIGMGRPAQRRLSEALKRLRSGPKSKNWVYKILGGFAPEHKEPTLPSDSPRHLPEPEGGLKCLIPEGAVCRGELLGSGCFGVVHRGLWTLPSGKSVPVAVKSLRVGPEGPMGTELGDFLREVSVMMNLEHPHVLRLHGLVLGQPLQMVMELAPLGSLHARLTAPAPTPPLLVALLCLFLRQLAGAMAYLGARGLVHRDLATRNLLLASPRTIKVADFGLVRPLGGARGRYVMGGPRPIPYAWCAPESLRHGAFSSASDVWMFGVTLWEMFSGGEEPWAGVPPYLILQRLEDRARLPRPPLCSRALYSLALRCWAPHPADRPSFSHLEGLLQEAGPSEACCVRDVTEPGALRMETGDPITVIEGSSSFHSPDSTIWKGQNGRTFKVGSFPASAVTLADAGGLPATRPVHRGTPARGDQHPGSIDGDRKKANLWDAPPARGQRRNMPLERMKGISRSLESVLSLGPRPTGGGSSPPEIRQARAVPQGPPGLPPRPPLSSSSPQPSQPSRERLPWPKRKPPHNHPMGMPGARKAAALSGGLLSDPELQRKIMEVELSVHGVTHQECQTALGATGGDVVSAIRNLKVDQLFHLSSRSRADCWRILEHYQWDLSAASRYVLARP

[2] = target: T2, Serine/threonine-protein kinase Nek3 (Homo sapiens, UniProt P51956)
T2 sequence (P51956 whole entry): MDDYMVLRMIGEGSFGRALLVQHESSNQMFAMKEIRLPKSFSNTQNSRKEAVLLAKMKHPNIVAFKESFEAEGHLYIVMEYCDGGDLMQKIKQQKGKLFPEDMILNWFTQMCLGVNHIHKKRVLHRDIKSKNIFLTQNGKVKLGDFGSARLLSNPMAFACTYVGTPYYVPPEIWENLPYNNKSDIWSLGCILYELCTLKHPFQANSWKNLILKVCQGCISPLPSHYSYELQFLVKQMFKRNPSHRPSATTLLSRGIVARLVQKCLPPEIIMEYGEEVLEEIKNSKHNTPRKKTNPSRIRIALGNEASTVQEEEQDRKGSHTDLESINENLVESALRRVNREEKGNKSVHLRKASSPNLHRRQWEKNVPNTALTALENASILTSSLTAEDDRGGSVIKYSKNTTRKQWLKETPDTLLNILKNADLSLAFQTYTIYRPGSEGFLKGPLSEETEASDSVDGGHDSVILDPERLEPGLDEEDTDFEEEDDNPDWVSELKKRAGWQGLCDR

[3] = target: Ribosomal protein S6 kinase alpha-1 (Homo sapiens, UniProt Q15418)
[4] = target: Ribosomal protein S6 kinase beta-1 (Homo sapiens, UniProt P23443)
[5] = target: T3, EKC/KEOPS complex subunit TP53RK (Homo sapiens, UniProt Q96S44)
T3 sequence (Q96S44 whole entry): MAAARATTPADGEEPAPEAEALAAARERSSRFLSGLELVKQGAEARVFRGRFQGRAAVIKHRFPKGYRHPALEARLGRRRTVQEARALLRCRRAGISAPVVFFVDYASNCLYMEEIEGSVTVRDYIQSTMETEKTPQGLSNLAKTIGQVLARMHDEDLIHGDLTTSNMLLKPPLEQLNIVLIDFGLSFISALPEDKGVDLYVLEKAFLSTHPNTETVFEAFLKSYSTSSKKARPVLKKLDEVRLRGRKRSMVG

[6] = target: T4, Adenine phosphoribosyltransferase (Homo sapiens, UniProt P07741)
T4 sequence (P07741 whole entry): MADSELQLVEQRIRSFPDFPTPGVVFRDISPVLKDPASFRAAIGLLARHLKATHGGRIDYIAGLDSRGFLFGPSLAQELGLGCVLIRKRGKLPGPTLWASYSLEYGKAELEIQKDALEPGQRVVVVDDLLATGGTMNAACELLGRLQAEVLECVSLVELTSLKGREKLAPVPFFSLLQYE

[7] = target: Ribosomal protein S6 kinase alpha-4 (Homo sapiens, UniProt O75676)
Chain of Ribosomal protein S6 kinase alpha-4 (O75676 whole entry): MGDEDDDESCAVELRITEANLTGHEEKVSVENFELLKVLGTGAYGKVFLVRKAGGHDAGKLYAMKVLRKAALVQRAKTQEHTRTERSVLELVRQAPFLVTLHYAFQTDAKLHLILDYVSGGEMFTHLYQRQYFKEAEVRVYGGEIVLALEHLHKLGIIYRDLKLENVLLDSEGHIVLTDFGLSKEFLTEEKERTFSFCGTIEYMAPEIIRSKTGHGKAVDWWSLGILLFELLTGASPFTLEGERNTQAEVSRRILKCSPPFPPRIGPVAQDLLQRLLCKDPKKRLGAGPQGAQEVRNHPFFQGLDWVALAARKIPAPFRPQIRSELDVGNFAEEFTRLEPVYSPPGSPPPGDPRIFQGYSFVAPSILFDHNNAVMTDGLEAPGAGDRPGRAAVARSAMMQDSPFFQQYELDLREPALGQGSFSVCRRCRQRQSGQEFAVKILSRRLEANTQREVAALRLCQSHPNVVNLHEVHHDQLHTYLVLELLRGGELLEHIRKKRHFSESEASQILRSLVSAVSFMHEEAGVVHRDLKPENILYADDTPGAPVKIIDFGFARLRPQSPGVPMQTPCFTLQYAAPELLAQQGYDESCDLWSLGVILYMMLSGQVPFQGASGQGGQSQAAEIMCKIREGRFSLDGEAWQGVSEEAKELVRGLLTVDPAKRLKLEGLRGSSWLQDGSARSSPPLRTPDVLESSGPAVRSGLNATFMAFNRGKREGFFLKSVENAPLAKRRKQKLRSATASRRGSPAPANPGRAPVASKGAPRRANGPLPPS

[8] = target: Non-receptor tyrosine-protein kinase TYK2 (Homo sapiens, UniProt P29597)
[9] = target: Mitogen-activated protein kinase 7 (Homo sapiens, UniProt Q13164)
Chain of Mitogen-activated protein kinase 7 (Q13164 whole entry): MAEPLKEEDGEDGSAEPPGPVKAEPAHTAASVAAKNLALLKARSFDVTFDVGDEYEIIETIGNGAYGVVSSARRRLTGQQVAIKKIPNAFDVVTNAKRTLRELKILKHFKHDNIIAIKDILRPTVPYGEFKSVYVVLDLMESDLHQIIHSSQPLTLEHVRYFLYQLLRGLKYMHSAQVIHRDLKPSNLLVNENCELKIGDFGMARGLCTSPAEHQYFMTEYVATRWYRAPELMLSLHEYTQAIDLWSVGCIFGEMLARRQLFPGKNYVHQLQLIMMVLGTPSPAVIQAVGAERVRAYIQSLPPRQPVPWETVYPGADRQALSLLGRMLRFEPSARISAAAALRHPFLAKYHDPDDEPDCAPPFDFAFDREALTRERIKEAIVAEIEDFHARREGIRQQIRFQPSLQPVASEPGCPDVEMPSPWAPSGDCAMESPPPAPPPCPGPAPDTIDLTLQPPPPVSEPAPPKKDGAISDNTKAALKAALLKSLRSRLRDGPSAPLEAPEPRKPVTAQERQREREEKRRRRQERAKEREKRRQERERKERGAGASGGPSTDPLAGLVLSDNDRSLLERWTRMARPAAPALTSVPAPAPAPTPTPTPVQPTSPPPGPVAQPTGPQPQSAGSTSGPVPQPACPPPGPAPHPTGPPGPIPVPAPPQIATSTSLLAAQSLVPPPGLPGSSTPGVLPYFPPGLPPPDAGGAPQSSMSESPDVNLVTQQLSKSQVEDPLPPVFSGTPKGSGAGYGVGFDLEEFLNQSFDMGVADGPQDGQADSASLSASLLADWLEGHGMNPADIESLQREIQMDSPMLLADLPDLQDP

[10] = target: Tyrosine-protein kinase Fyn (Homo sapiens, UniProt P06241)
[11] = target: STE20-like serine/threonine-protein kinase (Homo sapiens, UniProt Q9H2G2)
Chain of STE20-like serine/threonine-protein kinase (Q9H2G2 whole entry): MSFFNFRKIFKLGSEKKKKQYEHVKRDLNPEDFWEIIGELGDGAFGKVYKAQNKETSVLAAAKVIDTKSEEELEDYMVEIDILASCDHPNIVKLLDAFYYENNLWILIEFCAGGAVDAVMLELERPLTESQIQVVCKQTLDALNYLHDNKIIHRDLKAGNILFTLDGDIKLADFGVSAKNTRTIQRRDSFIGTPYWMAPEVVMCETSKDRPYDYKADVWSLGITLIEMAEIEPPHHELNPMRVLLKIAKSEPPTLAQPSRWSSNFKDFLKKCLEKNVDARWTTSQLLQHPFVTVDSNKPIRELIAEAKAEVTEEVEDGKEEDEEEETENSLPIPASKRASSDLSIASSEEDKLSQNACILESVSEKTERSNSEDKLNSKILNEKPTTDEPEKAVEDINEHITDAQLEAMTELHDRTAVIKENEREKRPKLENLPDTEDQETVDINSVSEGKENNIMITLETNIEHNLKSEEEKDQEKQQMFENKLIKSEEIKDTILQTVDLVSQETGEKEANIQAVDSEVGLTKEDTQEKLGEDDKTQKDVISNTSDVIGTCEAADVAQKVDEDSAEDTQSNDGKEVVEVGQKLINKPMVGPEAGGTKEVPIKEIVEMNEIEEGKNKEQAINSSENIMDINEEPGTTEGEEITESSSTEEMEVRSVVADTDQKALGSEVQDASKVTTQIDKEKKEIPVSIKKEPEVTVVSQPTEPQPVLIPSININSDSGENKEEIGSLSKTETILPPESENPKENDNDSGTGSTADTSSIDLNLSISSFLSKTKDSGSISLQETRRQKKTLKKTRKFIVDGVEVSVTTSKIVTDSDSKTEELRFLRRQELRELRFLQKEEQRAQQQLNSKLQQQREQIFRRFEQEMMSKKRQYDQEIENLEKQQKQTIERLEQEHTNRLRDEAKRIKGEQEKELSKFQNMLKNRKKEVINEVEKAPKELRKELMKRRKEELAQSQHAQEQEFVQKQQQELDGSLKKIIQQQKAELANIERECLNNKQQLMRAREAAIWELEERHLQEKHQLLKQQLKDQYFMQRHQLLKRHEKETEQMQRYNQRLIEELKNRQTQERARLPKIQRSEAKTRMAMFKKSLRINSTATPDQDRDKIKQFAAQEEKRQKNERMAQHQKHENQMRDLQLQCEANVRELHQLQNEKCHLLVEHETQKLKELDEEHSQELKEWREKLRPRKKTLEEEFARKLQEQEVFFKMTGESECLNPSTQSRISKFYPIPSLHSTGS

[12] = target: Aurora kinase B (Homo sapiens, UniProt Q96GD4)
Chain of Aurora kinase B (Q96GD4 whole entry): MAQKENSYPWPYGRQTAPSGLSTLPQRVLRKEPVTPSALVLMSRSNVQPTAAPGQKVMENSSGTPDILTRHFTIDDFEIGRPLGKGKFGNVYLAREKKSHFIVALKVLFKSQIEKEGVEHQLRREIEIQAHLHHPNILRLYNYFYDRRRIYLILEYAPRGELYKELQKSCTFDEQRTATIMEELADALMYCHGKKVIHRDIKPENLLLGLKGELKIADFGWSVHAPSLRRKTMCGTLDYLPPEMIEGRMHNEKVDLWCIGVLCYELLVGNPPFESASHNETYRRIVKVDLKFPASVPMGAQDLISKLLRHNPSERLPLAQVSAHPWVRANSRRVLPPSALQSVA

[13] = target: Calcium/calmodulin-dependent protein kinase kinase 2 (Homo sapiens, UniProt Q96RR4)
Chain of Calcium/calmodulin-dependent protein kinase kinase 2 (Q96RR4 whole entry): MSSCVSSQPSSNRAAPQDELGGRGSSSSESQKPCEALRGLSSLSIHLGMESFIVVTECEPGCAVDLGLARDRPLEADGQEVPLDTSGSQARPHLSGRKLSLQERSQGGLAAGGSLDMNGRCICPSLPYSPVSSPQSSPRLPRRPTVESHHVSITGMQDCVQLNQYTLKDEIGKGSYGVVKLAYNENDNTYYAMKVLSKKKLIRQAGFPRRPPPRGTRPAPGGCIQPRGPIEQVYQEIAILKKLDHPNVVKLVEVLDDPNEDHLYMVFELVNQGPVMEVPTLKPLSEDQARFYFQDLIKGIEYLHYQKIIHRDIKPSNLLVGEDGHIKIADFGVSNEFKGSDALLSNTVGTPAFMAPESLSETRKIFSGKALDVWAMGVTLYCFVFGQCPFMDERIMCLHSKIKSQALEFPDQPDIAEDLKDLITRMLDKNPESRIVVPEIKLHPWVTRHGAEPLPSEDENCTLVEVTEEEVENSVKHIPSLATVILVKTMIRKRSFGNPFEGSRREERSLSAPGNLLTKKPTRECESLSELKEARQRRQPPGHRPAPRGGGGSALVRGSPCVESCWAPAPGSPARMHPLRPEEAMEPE

[14] = target: T5, ADP/ATP translocase 2 (Homo sapiens, UniProt P05141)
T5 sequence (P05141 whole entry): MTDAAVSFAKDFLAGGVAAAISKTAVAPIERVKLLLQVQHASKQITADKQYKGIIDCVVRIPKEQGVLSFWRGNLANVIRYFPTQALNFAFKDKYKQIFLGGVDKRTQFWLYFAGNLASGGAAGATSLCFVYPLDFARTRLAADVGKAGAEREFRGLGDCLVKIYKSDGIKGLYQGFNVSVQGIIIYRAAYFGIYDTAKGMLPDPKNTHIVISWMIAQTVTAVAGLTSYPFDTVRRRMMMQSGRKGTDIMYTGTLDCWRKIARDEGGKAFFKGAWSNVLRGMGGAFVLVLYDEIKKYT

[15] = target: Mitogen-activated protein kinase kinase kinase kinase 5 (Homo sapiens, UniProt Q9Y4K4)
[16] = target: Ephrin type-A receptor 4 (Homo sapiens, UniProt P54764)
Chain of Ephrin type-A receptor 4 (P54764 whole entry): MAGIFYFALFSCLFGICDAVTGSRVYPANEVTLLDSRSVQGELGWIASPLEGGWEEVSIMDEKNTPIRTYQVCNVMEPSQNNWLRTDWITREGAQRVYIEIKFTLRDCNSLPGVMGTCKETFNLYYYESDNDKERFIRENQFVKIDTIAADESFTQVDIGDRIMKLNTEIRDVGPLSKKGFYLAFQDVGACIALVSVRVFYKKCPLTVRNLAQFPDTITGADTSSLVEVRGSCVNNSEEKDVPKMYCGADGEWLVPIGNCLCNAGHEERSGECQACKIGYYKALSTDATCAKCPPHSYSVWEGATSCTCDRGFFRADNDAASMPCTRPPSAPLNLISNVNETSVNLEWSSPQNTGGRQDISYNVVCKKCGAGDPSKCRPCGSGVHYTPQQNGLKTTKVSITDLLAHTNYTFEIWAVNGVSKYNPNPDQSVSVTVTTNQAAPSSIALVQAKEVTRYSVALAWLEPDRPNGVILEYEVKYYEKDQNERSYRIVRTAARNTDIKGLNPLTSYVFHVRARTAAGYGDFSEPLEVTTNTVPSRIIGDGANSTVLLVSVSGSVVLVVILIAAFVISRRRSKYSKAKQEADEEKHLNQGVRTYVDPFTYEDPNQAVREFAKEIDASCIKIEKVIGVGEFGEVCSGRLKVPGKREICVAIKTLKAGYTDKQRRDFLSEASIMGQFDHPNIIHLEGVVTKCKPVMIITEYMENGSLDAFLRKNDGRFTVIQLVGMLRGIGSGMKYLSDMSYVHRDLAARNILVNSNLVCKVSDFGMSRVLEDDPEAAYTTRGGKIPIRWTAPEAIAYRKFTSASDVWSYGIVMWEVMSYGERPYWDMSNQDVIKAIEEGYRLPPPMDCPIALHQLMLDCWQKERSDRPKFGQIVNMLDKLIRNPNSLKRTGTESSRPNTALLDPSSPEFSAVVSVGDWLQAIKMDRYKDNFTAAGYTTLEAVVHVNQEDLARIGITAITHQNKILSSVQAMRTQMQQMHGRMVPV

| SMILES | Kd [1] | Kd [2] | Kd [3] | Kd [4] | Kd [5] | Kd [6] | Kd [7] | Kd [8] | Kd [9] | Kd [10] | Kd [11] | Kd [12] | Kd [13] | Kd [14] | Kd [15] | Kd [16] |
| --- | --- | --- | --- | --- | --- | --- | --- | --- | --- | --- | --- | --- | --- | --- | --- | --- |
| C[C@@H]1COC(Nc2ccc3ncnc(Nc4ccc(OCc5nccs5)c(Cl)c4)c3c2)=N1 [VARLITINIB] | > 30 µM (inactive) | > 30 µM (inactive) | > 30 µM (inactive) | > 30 µM (inactive) | > 30 µM (inactive) | > 30 µM (inactive) | > 30 µM (inactive) | > 30 µM (inactive) | > 30 µM (inactive) | > 30 µM (inactive) | > 30 µM (inactive) | > 30 µM (inactive) | > 30 µM (inactive) | > 30 µM (inactive) | > 30 µM (inactive) | > 30 µM (inactive) |
| COCCN1CCN(Cc2ccc(-c3n[nH]c4c3C(=O)c3c(NC(=O)NN5CCOCC5)cccc3-4)cc2)CC1 [RGB-286638] | > 30 µM (inactive) | > 30 µM (inactive) | > 30 µM (inactive) | > 30 µM (inactive) | 1.72 µM (active) | > 30 µM (inactive) | > 30 µM (inactive) | > 30 µM (inactive) | > 30 µM (inactive) | > 30 µM (inactive) | > 30 µM (inactive) | > 30 µM (inactive) | > 30 µM (inactive) | > 30 µM (inactive) | > 30 µM (inactive) | > 30 µM (inactive) |
| CNC(=O)c1ccc(Nc2ncc(C(F)(F)F)c(NCc3nccnc3N(C)S(C)(=O)=O)n2)cc1 [DEFACTINIB] | 11.3 µM (active) | > 30 µM (inactive) | > 30 µM (inactive) | > 30 µM (inactive) | > 30 µM (inactive) | > 30 µM (inactive) | > 30 µM (inactive) | > 30 µM (inactive) | > 30 µM (inactive) | > 30 µM (inactive) | 41 µM (active) | 1.46 µM (active) | > 30 µM (inactive) | > 30 µM (inactive) | > 30 µM (inactive) | > 30 µM (inactive) |
| C=CC(=O)Nc1cccc(Nc2nc(Nc3ccc(N4CCN(C(C)=O)CC4)cc3OC)ncc2C(F)(F)F)c1 [ROCILETINIB] | 0.289 µM (active) | > 30 µM (inactive) | > 30 µM (inactive) | > 30 µM (inactive) | > 30 µM (inactive) | > 30 µM (inactive) | > 30 µM (inactive) | > 30 µM (inactive) | > 30 µM (inactive) | > 30 µM (inactive) | > 30 µM (inactive) | > 30 µM (inactive) | > 30 µM (inactive) | > 30 µM (inactive) | > 30 µM (inactive) | > 30 µM (inactive) |
| Cc1ccc(C(=O)Nc2ccc(Oc3cc4cnn(C)c4cc3-c3cn[nH]c3)c(F)c2)c(=O)n1-c1ccc(F)cc1 [MERESTINIB] | > 30 µM (inactive) | > 30 µM (inactive) | > 30 µM (inactive) | > 30 µM (inactive) | > 30 µM (inactive) | > 30 µM (inactive) | > 30 µM (inactive) | > 30 µM (inactive) | > 30 µM (inactive) | > 30 µM (inactive) | > 30 µM (inactive) | > 30 µM (inactive) | > 30 µM (inactive) | > 30 µM (inactive) | > 30 µM (inactive) | > 30 µM (inactive) |
| Cn1cc(-c2[nH]c3cc(NC(=O)[C@H](N)C4CCCCC4)cc4c3c2C=NNC4=O)cn1 | > 30 µM (inactive) | > 30 µM (inactive) | 5.2 µM | 2.38 µM (active) | > 30 µM (inactive) | > 30 µM (inactive) | 1.05 µM (active) | > 30 µM (inactive) | > 30 µM (inactive) | 1.34 µM (active) | > 30 µM (inactive) | 0.12 µM (active) | > 30 µM (inactive) | > 30 µM (inactive) | 2.64 µM (active) | > 30 µM (inactive) |
| NC(=O)c1ccc(N(C(N)=O)c2c(F)cccc2F)nc1-c1ccc(F)cc1F [VX-702] | > 30 µM (inactive) | > 30 µM (inactive) | > 30 µM (inactive) | > 30 µM (inactive) | > 30 µM (inactive) | > 30 µM (inactive) | > 30 µM (inactive) | > 30 µM (inactive) | > 30 µM (inactive) | > 30 µM (inactive) | > 30 µM (inactive) | > 30 µM (inactive) | > 30 µM (inactive) | > 30 µM (inactive) | > 30 µM (inactive) | > 30 µM (inactive) |
| S=C(NCc1ccc2c(c1)OCO2)N1CCN(c2ncnc3c2oc2ccccc23)CC1 [AMUVATINIB] | > 30 µM (inactive) | > 30 µM (inactive) | > 30 µM (inactive) | > 30 µM (inactive) | > 30 µM (inactive) | > 30 µM (inactive) | > 30 µM (inactive) | > 30 µM (inactive) | > 30 µM (inactive) | > 30 µM (inactive) | > 30 µM (inactive) | > 30 µM (inactive) | > 30 µM (inactive) | > 30 µM (inactive) | > 30 µM (inactive) | > 30 µM (inactive) |
| COc1cc(F)c(F)c(Nc2ccc(I)cc2F)c1NS(=O)(=O)C1(C[C@H](O)CO)CC1 [REFAMETINIB] | > 30 µM (inactive) | > 30 µM (inactive) | > 30 µM (inactive) | > 30 µM (inactive) | > 30 µM (inactive) | > 30 µM (inactive) | > 30 µM (inactive) | > 30 µM (inactive) | > 30 µM (inactive) | > 30 µM (inactive) | > 30 µM (inactive) | > 30 µM (inactive) | > 30 µM (inactive) | > 30 µM (inactive) | > 30 µM (inactive) | > 30 µM (inactive) |
| O[C@H]1CC[C@H](Nc2ncc3nc(Nc4c(F)cc(F)cc4F)n([C@H]4CCOC4)c3n2)CC1 [TANZISERTIB] | > 30 µM (inactive) | > 30 µM (inactive) | > 30 µM (inactive) | > 30 µM (inactive) | > 30 µM (inactive) | > 30 µM (inactive) | > 30 µM (inactive) | > 30 µM (inactive) | > 30 µM (inactive) | > 30 µM (inactive) | > 30 µM (inactive) | > 30 µM (inactive) | > 30 µM (inactive) | > 30 µM (inactive) | > 30 µM (inactive) | > 30 µM (inactive) |
